Assay results taken from PubChem BioAssay AID328 (DTP/NCI, 2004).
Several values for one entry are separate records, joined by “and”; a condition that tells them apart may be missing. Identical values can stand only once. Inconclusive results and toxic doses are left out.

Test system: BDF1 mice, P388 leukemia ip, median survival T/C
Test: NCI In Vivo Anticancer Drug Screen. Data for tumor model P388 Leukemia (intraperitoneal) in B6D2F1 (BDF1) mice
Settings: endpoint: median survival time, higher = longer survival
Method in brief: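 Survival ratio, drug arm over vehicle arm, in mice with a transplanted tumour.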

[1] = dose: 100.0 mg/kg/injection, schedule: Q04DX003 (ip), vehicle: saline with Tween-80
[2] = dose: 200.0 mg/kg/injection, schedule: Q04DX003 (ip), vehicle: saline with Tween-80
[3] = dose: 400.0 mg/kg/injection, schedule: Q04DX003 (ip), vehicle: saline with Tween-80
[4] = dose: 25.0 mg/kg/injection, schedule: Q01DX009 (ip), vehicle: saline with Tween-80
[5] = dose: 50.0 mg/kg/injection, schedule: Q01DX009 (ip), vehicle: saline with Tween-80
[6] = dose: 100.0 mg/kg/injection, schedule: Q01DX009 (ip), vehicle: saline with Tween-80
[7] = dose: 200.0 mg/kg/injection, schedule: Q01DX009 (ip), vehicle: saline with Tween-80
[8] = dose: 400.0 mg/kg/injection, schedule: Q01DX001 (ip), vehicle: saline
[9] = dose: 400.0 mg/kg/injection, schedule: Q01DX009 (ip), vehicle: saline with Tween-80

For `COc1ccc(CCNC(=O)CCN2C(=O)c3ccccc3C2=O)cc1OC`, the T/C [1] was 104 % of control, the T/C [2] was 90 % of control and the T/C [3] was 100 % of control.

In the case of `Oc1cccc2ccc(CC(O)(c3ccccc3)c3ccccc3)nc12`, the T/C [4] is reported as 108 % of control, the T/C [5] is reported as 99 % of control and the T/C [6] is reported as 108 % of control.

With `O=C(Nc1ccc(Cl)c(Cl)c1)ON1CCCCC1` the T/C [5] was 100 % of control, the T/C [6] was 100 % of control and the T/C [7] was 106 % of control.

In the case of `CNNCc1ccc(C(=O)NC(C)C)cc1`, the T/C (dose: 37.5 mg/kg/injection, schedule: Q01DX010 (ip), vehicle: saline) is reported as 100 % of control, the T/C (dose: 100.0 mg/kg/injection, schedule: Q01DX009 (ip), vehicle: saline) is reported as 112 % of control and 116 % of control and the T/C (dose: 120.0 mg/kg/injection, schedule: Q01DX009 (ip), vehicle: saline) is reported as 106 % of control. The T/C (dose: 125.0 mg/kg/injection, schedule: Q01DX009 (ip), vehicle: saline) was 123 % of control, the T/C (dose: 225.0 mg/kg/injection, schedule: Q01DX009 (ip), vehicle: saline) was 180 % of control and the T/C (dose: 250.0 mg/kg/injection, schedule: Q01DX009 (ip), vehicle: saline) was 161 % of control. The T/C [8] was 109 % of control.

In the case of `CCOC(=O)C1=C(C)NC(C)=C(C(=O)OCC)C1`, the T/C (dose: 100.0 mg/kg/injection, schedule: Q01DX001 (ip), vehicle: saline with Tween-80) is reported as 90 % of control, the T/C (dose: 200.0 mg/kg/injection, schedule: Q01DX001 (ip), vehicle: saline with Tween-80) is reported as 95 % of control and the T/C (dose: 400.0 mg/kg/injection, schedule: Q01DX001 (ip), vehicle: saline with Tween-80) is reported as 100 % of control.

`COc1ccc(NC(=S)Nc2ccccn2)cc1` was tested, and the T/C (dose: 12.5 mg/kg/injection, schedule: Q01DX009 (ip), vehicle: saline with Tween-80) was 100 % of control, the T/C [4] was 100 % of control and the T/C [5] was 104 % of control. For the same compound, the T/C (dose: 100.0 mg/kg/injection, schedule: Q01DX001 (ip), vehicle: saline) was 103 % of control, the T/C [6] was 100 % of control and the T/C (dose: 200.0 mg/kg/injection, schedule: Q01DX001 (ip), vehicle: saline) was 111 % of control. The T/C [7] was 96 % of control, the T/C [8] was 107 % of control and the T/C [9] was 104 % of control.

For `Nc1ccc(Nc2ccncc2)cc1`, the T/C (dose: 50.0 mg/kg/injection, schedule: Q04DX003 (ip), vehicle: Klucel (hydroxypropylcellulose) (HPC)) was 100 % of control, the T/C (dose: 100.0 mg/kg/injection, schedule: Q04DX003 (ip), vehicle: Klucel (hydroxypropylcellulose) (HPC)) was 95 % of control and the T/C (dose: 200.0 mg/kg/injection, schedule: Q04DX003 (ip), vehicle: Klucel (hydroxypropylcellulose) (HPC)) was 90 % of control.

`ClC1=C(Cl)C2(Cl)C3(Cl)C(Cl)=C(Cl)C(Cl)(C3c3ccccc3)C2(Cl)C1c1ccccc1` (stereo unspecified) was tested, and the T/C [6] was 95 % of control, the T/C (dose: 100.0 mg/kg/injection, schedule: Q04DX003 (ip), vehicle: saline sonified) was 100 % of control and the T/C [7] was 95 % of control. For the same compound, the T/C (dose: 200.0 mg/kg/injection, schedule: Q04DX003 (ip), vehicle: saline sonified) was 104 % of control, the T/C [9] was 95 % of control and the T/C (dose: 400.0 mg/kg/injection, schedule: Q04DX003 (ip), vehicle: saline sonified) was 90 % of control.

With `O=C(NCc1cnccn1)Oc1ccc([N+](=O)[O-])cc1` the T/C [5] was 112 % of control, the T/C [6] was 94 % of control and the T/C [7] was 86 % of control. The T/C [9] was 97 % of control.

With `CCCCSCc1nc2nc(Cl)c(Cl)nc2[nH]1` the T/C [5] was 110 % of control, the T/C [6] was 108 % of control and the T/C [1] was 109 % of control. The T/C [7] was 91 % of control, the T/C [2] was 95 % of control and the T/C [9] was 94 % of control. For the same compound, the T/C [3] was 95 % of control.

In the case of `CC(C)N(C(C)C)C(C)CCNc1c2ccccc2nc2cc(Cl)ccc12` (stereo unspecified), the T/C (dose: 6.0 mg/kg/injection, schedule: Q01DX009 (ip), vehicle: saline) is reported as 100 % of control, the T/C (dose: 12.0 mg/kg/injection, schedule: Q01DX009 (ip), vehicle: saline) is reported as 105 % of control and the T/C (dose: 24.0 mg/kg/injection, schedule: Q01DX009 (ip), vehicle: saline) is reported as 100 % of control.
